According to PubChem BioAssay (NCI):
Values joined by “and” are separate entries in the source; they are usually repeats but may differ in a detail not shown here. Equal values may be shown once.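 In this assay, cells in 96-well plates receive the compound at five concentrations for 48 hours. Endpoints are linearly interpolated between the surrounding concentrations. Here, GI50 denotes the concentration required for 50% inhibition of growth. TGI is the concentration that stops growth completely.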

Key:
Assay in all cases: growth of human tumour cells (NCI), 48 h
[1] = system: M14 melanoma
[2] = system: HCT-116 colon
[3] = system: DLD-1 colon
[4] = system: KM20L2 colon
[5] = system: U251 CNS
[6] = system: HCC-2998 colon
[7] = system: K-562 leukemia
[8] = system: T-47D breast
[9] = system: MCF7 breast
[10] = system: MDA-MB-435

SMILES: COC1CC(OS(=O)(=O)c2ccc([N+](=O)[O-])cc2)C(OC(=O)c2ccccc2)C(C)O1 (configuration not stated)
- TGI [1]: > 100 µM
- TGI [2]: > 100 µM
- TGI [3]: > 100 µM
- TGI [4]: > 100 µM
- TGI [5]: > 100 µM
- TGI [6]: > 100 µM
- TGI [7]: > 100 µM

SMILES: CC(C)C1CC[C@@H](C)C[C@@]1(O)CC(N)=O (some centres not stated)
- TGI [1]: > 100 µM
- TGI [2]: > 100 µM
- TGI [3]: > 100 µM
- TGI [4]: > 100 µM
- TGI [5]: > 100 µM
- TGI [6]: > 100 µM
- TGI [7]: > 100 µM

SMILES: CCOC(=O)N1CCN(C=S)CC1
- TGI [1]: > 100 µM
- TGI [2]: > 100 µM
- TGI [3]: > 100 µM
- TGI [4]: > 100 µM
- TGI [5]: > 100 µM
- TGI [6]: > 100 µM
- TGI [7]: > 100 µM

SMILES: Cn1cc(C(=O)NCCC(=N)N)cc1NC(=O)C1=[N+](C)C=C(NC(=O)c2cccc(C(=O)NC3=CC(C(=O)Nc4cc(C(=O)NCCC(=N)N)cn4C)=[N+](C)C3)c2)C1
- TGI [1]: > 100 µM
- TGI [3]: > 100 µM
- TGI [4]: > 100 µM
- TGI [5]: > 100 µM
- TGI [6]: > 100 µM
- TGI [7]: > 100 µM

SMILES: CCCCNc1nc(C#N)c(N)s1
- TGI [1]: > 100 µM
- TGI [2]: > 100 µM
- TGI [3]: > 100 µM
- TGI [4]: > 100 µM
- TGI [5]: > 100 µM
- TGI [6]: > 100 µM
- TGI [7]: > 100 µM

SMILES: CCc1cc(C(=O)OC)cn1C(=N)c1ccc(Cl)cc1
- TGI [1]: > 100 µM
- TGI [2]: > 100 µM
- TGI [3]: > 100 µM
- TGI [4]: > 100 µM
- TGI [5]: > 100 µM
- TGI [6]: > 100 µM
- TGI [7]: > 100 µM

SMILES: Cc1ccc(S(=O)(=O)OC2CSS(=O)CC2OS(=O)(=O)c2ccc(C)cc2)cc1 (configuration not stated)
- TGI [1]: 27.4 µM
- TGI [2]: 27.1 µM
- TGI [3]: 23.6 µM
- TGI [4]: 32.6 µM
- TGI [5]: 28.1 µM
- TGI [6]: 30.9 µM
- TGI [7]: 21.1 µM

SMILES: CC1CCC(NC(=O)N(CCCl)N=O)CC1 (configuration not stated)
- GI50 [1]: 14.3 µM
- TGI [1]: 30.5 µM and 66.5 µM
- GI50 [2]: 30.2 µM
- TGI [2]: 90.4 µM and 85.6 µM
- GI50 [3]: 22.3 µM
- TGI [3]: 47.7 µM and 79.4 µM
- GI50 [4]: 44.7 µM
- TGI [4]: 120 µM
- GI50 [5]: 20.8 µM
- TGI [5]: 65.9 µM
- TGI [8]: 88.1 µM
- TGI [6]: 93.9 µM
- GI50 [7]: 0.122 µM
- TGI [7]: 28.9 µM and 119 µM
- TGI [9]: 110 µM
- TGI [10]: 65.9 µM

SMILES: COc1ccc(Br)c(N/N=C2\CCCNC2=O)c1
- TGI [1]: > 100 µM
- TGI [2]: > 100 µM
- TGI [3]: > 100 µM
- TGI [4]: > 100 µM
- TGI [5]: > 100 µM
- TGI [6]: > 100 µM
- TGI [7]: > 100 µM

SMILES: CCS(CC)(CC)CC1CCCC2=CCC(P(=O)(c3ccccc3)c3ccccc3)CC21 (configuration not stated)
- TGI [1]: 25.6 µM
- TGI [2]: 20.7 µM
- TGI [3]: 28.7 µM
- TGI [4]: 25.2 µM
- TGI [5]: 23.1 µM
- TGI [6]: 22 µM
- TGI [7]: 39.9 µM

SMILES: CCC[CH2][Sn]1([CH2]CCC)[O]C(=O)c2cccnc2[O]1
- GI50 [1]: 3.11 µM
- TGI [1]: 10.6 µM
- GI50 [2]: 3.61 µM
- TGI [2]: 11.4 µM
- GI50 [3]: 3.11 µM
- TGI [3]: 10.7 µM
- GI50 [4]: 3.96 µM
- TGI [4]: 11.9 µM
- GI50 [5]: 1.89 µM
- TGI [5]: 3.79 µM
- GI50 [6]: 3.76 µM
- TGI [6]: 14.6 µM
- GI50 [7]: 1.85 µM
- TGI [7]: 6.01 µM

SMILES: Cc1cc(O)c(C(C)C)cc1S(=O)(=O)O (tested in a mixture with another compound)
- GI50 [1]: 0.296 µM
- GI50 [2]: 0.343 µM
- TGI [3]: > 100 µM
- TGI [4]: > 100 µM
- GI50 [5]: 0.368 µM
- GI50 [8]: 0.856 µM
- TGI [8]: 4.79 µM
- GI50 [6]: 0.229 µM
- GI50 [7]: 0.375 µM
- GI50 [9]: 0.325 µM
- TGI [9]: 1.57 µM
- GI50 [10]: 0.171 µM
- TGI [10]: 0.464 µM

SMILES: O=[N+]([O-])c1cc(C(F)(F)F)cc([N+](=O)[O-])c1CCl
- TGI [1]: 1.59 µM
- TGI [2]: 2.46 µM
- TGI [3]: 4.65 µM
- TGI [4]: 8.72 µM
- TGI [5]: 14.2 µM
- TGI [7]: 1.11 µM

SMILES: Cc1cc(=O)n(-c2ccccc2C)c(C)n1
- TGI [1]: > 100 µM
- TGI [2]: > 100 µM
- TGI [3]: > 100 µM
- TGI [4]: > 100 µM
- TGI [5]: > 100 µM
- TGI [6]: > 100 µM
- TGI [7]: > 100 µM

SMILES: COc1cc(C[C@H]2c3cc(OC)c(OC)cc3CCN2C)c(Oc2cc3c(cc2OC)-c2c(OC)c(OC)cc4c2[C@H](C3)N(C)CC4)cc1OC
- GI50 [1]: 1.9 µM
- TGI [1]: 4.36 µM and 3.48 µM
- GI50 [2]: 10.4 µM
- TGI [2]: 14 µM and 22.4 µM
- TGI [3]: 40.8 µM and 28.3 µM
- GI50 [4]: 2.32 µM
- TGI [4]: 13.5 µM and 7.75 µM
- GI50 [5]: 10.7 µM
- TGI [5]: 8.95 µM and 22.7 µM
- TGI [8]: 23.4 µM
- GI50 [6]: 4.9 µM
- TGI [6]: 15.1 µM and 14.4 µM
- GI50 [7]: 1.49 µM
- TGI [7]: 15.6 µM and 5.4 µM
- TGI [9]: 27.8 µM
- TGI [10]: 12.5 µM

SMILES: COc1cc2c(c(OC)c1OC)-c1ccc(SC)c(=O)cc1C(CO)C2 (configuration not stated)
- GI50 [1]: < 0.01 µM
- TGI [1]: < 0.01 µM
- GI50 [2]: < 0.01 µM
- GI50 [3]: < 0.01 µM
- GI50 [4]: < 0.01 µM
- GI50 [5]: < 0.01 µM
- TGI [5]: 0.728 µM and 0.111 µM
- GI50 [6]: < 0.01 µM
- GI50 [7]: < 0.01 µM
- TGI [7]: 23.7 µM

SMILES: COc1cc(OC(=O)c2ccccc2)cc2c1C(=O)C=CC2=O
- TGI [1]: 32.5 µM
- TGI [2]: 13.5 µM
- TGI [3]: 35.5 µM
- TGI [4]: > 100 µM
- TGI [5]: 38.2 µM
- TGI [8]: 4.73 µM
- TGI [7]: 5.36 µM
- TGI [9]: 52 µM
- TGI [10]: 12 µM

SMILES: OC(c1ccccc1)(c1ccccc1)c1ccncc1
- TGI [1]: > 100 µM
- TGI [2]: > 100 µM
- TGI [3]: > 100 µM
- TGI [4]: > 100 µM
- TGI [5]: > 100 µM
- TGI [6]: > 100 µM
- TGI [7]: > 100 µM

SMILES: c1ccc2c(c1)cc(C1NCCc3[nH]cnc31)c1ccccc12 (configuration not stated)
- TGI [1]: 36.7 µM
- TGI [2]: 42.7 µM
- TGI [3]: > 100 µM
- TGI [4]: > 100 µM
- TGI [5]: > 57.7 µM
- TGI [6]: 21.8 µM
- TGI [7]: 41.1 µM
